The source of these data is EP0390673A1, “5-Acyl-benzoxazolinone derivatives, processes for their preparation and pharmaceutical compositions containing them” (ADIR ET COMPAGNIE, priority 1989, dated 1990).

The test concerns souris. Put plainly: Analgesic activity, Siegmund test (phenyl-p-benzoquinone-induced stretching). In kind it is in vivo. The following applies: Mus musculus; oral, 1 hour before i.p. phényl-p-benzoquinone 0,02 %; stretches counted between minutes 5 and 10; read-out: ED₅₀, dose entraînant une activité de 50%. An excerpt:
L'activité sur la douleur a été recherchée chez la souris (23-25 g) selon un protocole dérivé de la technique décrite par SIEGMUND (SIEGMUND E.A., R.A. CADMUS & GOLU, J. Pharm. Exp. Ther. 119, 1874, 1954). Les souris, réparties par randomisation en lots de 12 animaux, ont reçu le traitement par voie orale (excipient pour les témoins) 1 heure avant l'injection intra-péritonéale d'une solution hydroalcoolique de phényl-p-benzoquinone (Sigma) à 0,02 %. Les étirements sont dénombrés entre la 5ème et 10ème minute après l'injection.
Le pourcentage d'activité obtenu a été évalué pour chaque dose (% de diminution du nombre d'étirements chez les traités par rapport aux témoins). Une ED₅₀, dose entraînant une activité de 50%, a été déterminée pour chaque produit.

Take `O=C(c1ccccc1)c1ccc2oc(=O)[nH]c2c1` [Exemple 1, BENZOYL-5 BENZOXAZOLINONE]: the ED50 was around 5 mg/kg.
